Test results published in PMC10178848, “Modulating fast skeletal muscle contraction protects skeletal muscle in animal models of Duchenne muscular dystrophy” (The Journal of Clinical Investigation, 2023).

Tested on: GRMD plasma proteins
Format: in vivo, dog
Settings: Post-Treatment to GRMD baseline

## O=c1ccc(-c2cnc(OCC(F)(F)F)nc2)nn1Cc1cncc(F)c1 [EDG-5506]
Decreased in GRMD
  Protein jagged-1 (JAG1): Change from GRMD Baseline (fraction): 0.0021 fraction
  Retinol-binding protein 4 (RBP4): Change from GRMD Baseline (fraction): 0.0032 fraction
  Roundabout homolog 2 (ROBO2): Change from GRMD Baseline (fraction): -0.0814 fraction
  SLIT and NTRK-like protein 5 (SLITRK5): Change from GRMD Baseline (fraction): -0.2994 fraction
  SPARC (SPARC): Change from GRMD Baseline (fraction): -0.1611 fraction
  Sclerostin (SOST): Change from GRMD Baseline (fraction): 0.0855 fraction
  Semaphorin-3E (SEMA3E): Change from GRMD Baseline (fraction): -0.1435 fraction
  Semaphorin-5A (SEMA5A): Change from GRMD Baseline (fraction): -0.108 fraction
  Serum albumin (ALB): Change from GRMD Baseline (fraction): -0.0304 fraction
  Sialic acid-binding Ig-like lectin 6 (SIGLEC6): Change from GRMD Baseline (fraction): 0.0534 fraction
  Stem cell growth factor-alpha (CLEC11A): Change from GRMD Baseline (fraction): -0.1896 fraction
  T-lymphocyte surface antigen Ly-9 (LY9): Change from GRMD Baseline (fraction): 0.0022 fraction
  TGF-beta receptor type-2 (TGFBR2): Change from GRMD Baseline (fraction): 0.1736 fraction
  Tropomyosin alpha-1 chain (TPM1): Change from GRMD Baseline (fraction): 0.8207 fraction
  Tumor necrosis factor receptor superfamily member 10B (TNFRSF10B): Change from GRMD Baseline (fraction): -0.0324 fraction
  Tumor necrosis factor-inducible gene 6 protein (TNFAIP6): Change from GRMD Baseline (fraction): 1.4994 fraction
  Wnt inhibitory factor 1 (WIF1): Change from GRMD Baseline (fraction): -0.1154 fraction
Increased in GRMD
  Activated Protein C (PROC): Change from GRMD Baseline (fraction): 0.4863 fraction
  Adiponectin (ADIPOQ): Change from GRMD Baseline (fraction): 0.0194 fraction
  Alanine aminotransferase 1 (GPT): Change from GRMD Baseline (fraction): 0.0095 fraction
  Alpha-2-antiplasmin (SERPINF2): Change from GRMD Baseline (fraction): -0.0109 fraction
  Apolipoprotein D (APOD): Change from GRMD Baseline (fraction): 0.0538 fraction
  Apolipoprotein L1 (APOL1): Change from GRMD Baseline (fraction): -0.0015 fraction
  Asialoglycoprotein receptor 1 (ASGR1): Change from GRMD Baseline (fraction): -0.0063 fraction
  Bone morphogenetic protein 1 (BMP1): Change from GRMD Baseline (fraction): -0.0803 fraction
  Breast cancer anti-estrogen resistance protein 3 (BCAR3): Change from GRMD Baseline (fraction): -0.0258 fraction
  C5a anaphylatoxin (C5): Change from GRMD Baseline (fraction): -0.0743 fraction
  C-C motif chemokine 1 (CCL1): Change from GRMD Baseline (fraction): 0.0039 fraction
  C-C motif chemokine 3 (CCL3): Change from GRMD Baseline (fraction): -0.0317 fraction
  C-X-C motif chemokine 5 (CXCL5): Change from GRMD Baseline (fraction): 0.0104 fraction
  CD63 antigen (CD63): Change from GRMD Baseline (fraction): -0.0301 fraction
  CD97 antigen (CD97): Change from GRMD Baseline (fraction): 0.0218 fraction
  CD109 antigen (CD109): Change from GRMD Baseline (fraction): 0.0141 fraction
  CD177 antigen (CD177): Change from GRMD Baseline (fraction): -0.108 fraction
  Carbonic anhydrase 4 (CA4): Change from GRMD Baseline (fraction): 0.0571 fraction
  Caspase-3 (CASP3): Change from GRMD Baseline (fraction): -0.049 fraction
  Cell adhesion molecule 3 (CADM3): Change from GRMD Baseline (fraction): 0.0642 fraction
  Change from GRMD Baseline (fraction): 1-phosphatidylinositol 4,5-bisphosphate phosphodiesterase gamma-1 (PLCG1): 0.0175 fraction
  Change from GRMD Baseline (fraction): 14-3-3 protein family (YWHAB,YWHAE,YWHAG,YWHAH,YWHAQ,YWHAZ,SFN): -0.0622 fraction
  Change from GRMD Baseline (fraction): 26S proteasome non-ATPase regulatory subunit 7 (PSMD7): -0.0966 fraction
  Change from GRMD Baseline (fraction): 40S ribosomal protein S7 (RPS7): -0.1727 fraction
  Change from GRMD Baseline (fraction): A disintegrin and metalloproteinase with thrombospondin motifs 5 (ADAMTS5): 0.0247 fraction
  Change from GRMD Baseline (fraction): A disintegrin and metalloproteinase with thrombospondin motifs 15 (ADAMTS15): 0.1616 fraction
  Change from GRMD Baseline (fraction): AH receptor-interacting protein (AIP): 0.0125 fraction
  Change from GRMD Baseline (fraction): AMP Kinase (alpha2beta2gamma1) (PRKAA2 PRKAB2 PRKAG1): -0.177 fraction
  Change from GRMD Baseline (fraction): ATP synthase subunit beta, mitochondrial (ATP5B): 0.0065 fraction
  Change from GRMD Baseline (fraction): ATP-dependent RNA helicase DDX19B (DDX19B): -0.0978 fraction
  Change from GRMD Baseline (fraction): Acidic leucine-rich nuclear phosphoprotein 32 family member B (ANP32B): -0.0886 fraction
  Change from GRMD Baseline (fraction): Activin receptor type-1B (ACVR1B): -0.017 fraction
  Change from GRMD Baseline (fraction): Adenylate kinase isoenzyme 1 (AK1): -0.2055 fraction
  Change from GRMD Baseline (fraction): Adenylosuccinate lyase (ADSL): 0.0105 fraction
  Change from GRMD Baseline (fraction): Afamin (AFM): -0.0171 fraction
  Change from GRMD Baseline (fraction): Aflatoxin B1 aldehyde reductase member 2 (AKR7A2): -0.0506 fraction
  Change from GRMD Baseline (fraction): Alcohol dehydrogenase [NADP(+)] (AKR1A1): -0.1025 fraction
  Change from GRMD Baseline (fraction): Aminoacylase-1 (ACY1): -0.1248 fraction
  Change from GRMD Baseline (fraction): Amphoterin-induced protein 2 (AMIGO2): -0.0371 fraction
  Change from GRMD Baseline (fraction): Annexin A6 (ANXA6): -0.0862 fraction
  Change from GRMD Baseline (fraction): Anterior gradient protein 2 homolog (AGR2): 0.2414 fraction
  Change from GRMD Baseline (fraction): Apolipoprotein E (APOE): 0.0948 fraction
